Assay results taken from ChEMBL document CHEMBL1201862, “PubChem BioAssay data set” (2004).
Calls of active or inactive are those of the source.

Tests used:
Cytochrome P450 1A2 = biological target: T1, Cytochrome P450 1A2 (Homo sapiens, UniProt P05177);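 further: PubChem cytochrome P450 panel assay, CYP1A2 panel member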
T1 sequence (P05177 whole entry): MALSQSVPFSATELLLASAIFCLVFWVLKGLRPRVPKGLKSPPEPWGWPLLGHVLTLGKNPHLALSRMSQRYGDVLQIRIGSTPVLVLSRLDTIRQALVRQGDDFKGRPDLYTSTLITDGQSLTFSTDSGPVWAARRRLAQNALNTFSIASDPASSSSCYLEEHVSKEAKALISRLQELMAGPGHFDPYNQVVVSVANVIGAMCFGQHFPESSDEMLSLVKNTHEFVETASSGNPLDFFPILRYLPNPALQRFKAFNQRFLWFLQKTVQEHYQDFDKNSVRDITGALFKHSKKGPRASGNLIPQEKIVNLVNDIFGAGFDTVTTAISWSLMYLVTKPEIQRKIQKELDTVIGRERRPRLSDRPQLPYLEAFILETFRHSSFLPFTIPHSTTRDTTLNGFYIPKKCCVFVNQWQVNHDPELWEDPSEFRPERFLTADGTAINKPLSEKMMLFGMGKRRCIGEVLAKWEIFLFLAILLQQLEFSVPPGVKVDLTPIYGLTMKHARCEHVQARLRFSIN

Cytochrome P450 3A4 = Cytochrome P450 3A4 (Homo sapiens, UniProt P08684);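 further: CYP3A4 tested as one member of a cytochrome P450 panel screen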
Chain of Cytochrome P450 3A4 (P08684 whole entry): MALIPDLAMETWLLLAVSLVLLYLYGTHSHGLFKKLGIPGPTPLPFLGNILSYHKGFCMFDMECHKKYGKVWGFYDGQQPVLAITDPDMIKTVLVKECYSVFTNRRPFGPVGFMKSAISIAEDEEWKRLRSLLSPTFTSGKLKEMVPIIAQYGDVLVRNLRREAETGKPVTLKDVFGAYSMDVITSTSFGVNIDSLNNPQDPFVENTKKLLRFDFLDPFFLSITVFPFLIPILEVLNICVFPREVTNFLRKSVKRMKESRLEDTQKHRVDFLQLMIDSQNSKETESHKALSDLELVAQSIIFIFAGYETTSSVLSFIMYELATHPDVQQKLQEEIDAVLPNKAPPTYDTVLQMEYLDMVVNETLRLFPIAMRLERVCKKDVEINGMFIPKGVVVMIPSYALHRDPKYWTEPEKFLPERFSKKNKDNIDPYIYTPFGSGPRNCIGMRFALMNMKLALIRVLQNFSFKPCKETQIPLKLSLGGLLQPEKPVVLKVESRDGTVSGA

[1] = biological target: T2, Rac GTPase-activating protein 1 (Homo sapiens, UniProt Q9H0H5); test: MgcRacGAP GTPase-activating activity inhibitors, confirmation, biochemical, ADP Hunter fluorescence, primary and confirmatory (AID 624330); format: functional
T2 sequence (Q9H0H5 whole entry): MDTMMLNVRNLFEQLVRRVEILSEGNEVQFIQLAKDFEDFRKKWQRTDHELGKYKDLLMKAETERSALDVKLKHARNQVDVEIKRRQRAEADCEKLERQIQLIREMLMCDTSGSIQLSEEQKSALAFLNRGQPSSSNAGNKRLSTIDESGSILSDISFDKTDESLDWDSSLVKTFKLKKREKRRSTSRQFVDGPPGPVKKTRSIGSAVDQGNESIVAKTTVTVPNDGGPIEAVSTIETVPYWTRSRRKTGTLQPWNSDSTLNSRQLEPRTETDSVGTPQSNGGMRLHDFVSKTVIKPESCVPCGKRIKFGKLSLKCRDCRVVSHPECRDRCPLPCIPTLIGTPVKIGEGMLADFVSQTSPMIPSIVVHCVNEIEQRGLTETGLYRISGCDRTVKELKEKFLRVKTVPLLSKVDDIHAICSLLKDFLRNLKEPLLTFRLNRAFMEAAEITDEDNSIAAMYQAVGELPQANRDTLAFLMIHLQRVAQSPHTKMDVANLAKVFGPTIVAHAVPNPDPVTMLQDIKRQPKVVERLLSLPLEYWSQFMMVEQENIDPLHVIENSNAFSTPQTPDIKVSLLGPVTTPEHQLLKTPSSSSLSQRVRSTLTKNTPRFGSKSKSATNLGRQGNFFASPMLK

Cytochrome P450 2D6 = Cytochrome P450 2D6 (Homo sapiens, UniProt P10635);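 further: CYP2D6 member of a cytochrome P450 panel assay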
Chain of Cytochrome P450 2D6 (P10635 whole entry): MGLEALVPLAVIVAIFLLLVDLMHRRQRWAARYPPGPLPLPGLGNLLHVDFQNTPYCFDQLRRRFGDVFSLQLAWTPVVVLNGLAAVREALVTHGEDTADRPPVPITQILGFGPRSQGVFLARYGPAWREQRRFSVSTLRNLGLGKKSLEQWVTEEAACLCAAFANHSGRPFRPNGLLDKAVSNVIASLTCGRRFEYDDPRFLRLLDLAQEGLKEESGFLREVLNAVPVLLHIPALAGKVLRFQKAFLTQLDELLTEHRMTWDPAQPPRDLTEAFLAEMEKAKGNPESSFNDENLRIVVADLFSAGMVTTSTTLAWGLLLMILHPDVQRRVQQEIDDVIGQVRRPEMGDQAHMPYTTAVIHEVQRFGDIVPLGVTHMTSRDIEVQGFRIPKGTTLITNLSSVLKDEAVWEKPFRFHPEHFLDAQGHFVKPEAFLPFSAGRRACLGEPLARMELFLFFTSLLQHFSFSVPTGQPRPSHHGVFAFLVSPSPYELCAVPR

Cytochrome P450 2C9 = Cytochrome P450 2C9 (Homo sapiens, UniProt P11712)
Chain of Cytochrome P450 2C9 (P11712 whole entry): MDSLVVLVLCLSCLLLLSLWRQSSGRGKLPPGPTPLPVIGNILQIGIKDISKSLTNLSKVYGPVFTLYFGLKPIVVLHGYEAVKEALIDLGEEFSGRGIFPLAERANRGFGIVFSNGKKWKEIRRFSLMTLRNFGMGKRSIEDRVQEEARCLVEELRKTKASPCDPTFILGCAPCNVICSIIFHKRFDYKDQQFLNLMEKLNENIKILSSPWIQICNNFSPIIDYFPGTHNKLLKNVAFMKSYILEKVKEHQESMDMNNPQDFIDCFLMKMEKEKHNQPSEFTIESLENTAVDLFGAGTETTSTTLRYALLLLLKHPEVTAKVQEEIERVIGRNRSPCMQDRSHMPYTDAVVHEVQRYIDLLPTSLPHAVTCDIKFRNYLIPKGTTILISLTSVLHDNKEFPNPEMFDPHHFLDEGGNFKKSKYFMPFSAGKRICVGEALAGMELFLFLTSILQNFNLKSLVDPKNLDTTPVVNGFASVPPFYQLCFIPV

Cytochrome P450 2C19 = Cytochrome P450 2C19 (Homo sapiens, UniProt P33261); test: Cytochrome panel assay with activity outcomes. Panel member name: p450-cyp2c19 Compounds with AC50 equal or less than 10 uM are considered active; format: functional; conditions: read-out: AC50
Chain of Cytochrome P450 2C19 (P33261 whole entry): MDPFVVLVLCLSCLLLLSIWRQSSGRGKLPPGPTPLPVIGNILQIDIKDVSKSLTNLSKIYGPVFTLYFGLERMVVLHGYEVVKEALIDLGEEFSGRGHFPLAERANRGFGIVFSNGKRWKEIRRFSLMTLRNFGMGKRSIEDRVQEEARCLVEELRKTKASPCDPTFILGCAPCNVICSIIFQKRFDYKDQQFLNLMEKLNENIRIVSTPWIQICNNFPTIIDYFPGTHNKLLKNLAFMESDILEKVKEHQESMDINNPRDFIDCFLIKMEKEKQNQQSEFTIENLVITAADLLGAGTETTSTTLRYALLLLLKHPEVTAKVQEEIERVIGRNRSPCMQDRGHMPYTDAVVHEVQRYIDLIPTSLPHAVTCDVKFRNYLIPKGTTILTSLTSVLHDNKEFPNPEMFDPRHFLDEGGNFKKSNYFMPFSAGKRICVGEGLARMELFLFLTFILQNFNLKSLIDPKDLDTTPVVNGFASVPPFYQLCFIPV

[2] = HEp-2 cell cytotoxicity, dose response, cytotoxicity control for RSV inhibitor project, HTS (AID 2410); format: functional; conditions: human respiratory syncytial virus
[3] = biological target: T3, Corticotropin-releasing factor receptor 2/Corticotropin-releasing factor-binding protein (Homo sapiens, UniProt P24387+Q13324); test: activators of CRF receptor 2 with binding protein – uHTS hits, confirmation (AID 602473); format: functional; conditions: read-out: EC50_Mean
T3 sequence (Q13324 whole entry): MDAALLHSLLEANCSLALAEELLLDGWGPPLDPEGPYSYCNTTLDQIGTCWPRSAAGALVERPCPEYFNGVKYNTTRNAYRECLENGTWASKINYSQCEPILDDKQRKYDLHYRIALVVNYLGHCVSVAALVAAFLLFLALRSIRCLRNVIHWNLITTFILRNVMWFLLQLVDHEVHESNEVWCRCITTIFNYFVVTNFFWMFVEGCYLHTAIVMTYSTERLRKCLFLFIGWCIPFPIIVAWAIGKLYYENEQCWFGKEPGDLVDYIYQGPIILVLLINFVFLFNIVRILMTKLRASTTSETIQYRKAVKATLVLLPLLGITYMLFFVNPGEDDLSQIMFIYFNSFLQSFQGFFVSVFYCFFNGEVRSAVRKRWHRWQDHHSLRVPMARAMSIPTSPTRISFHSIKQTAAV
T3 sequence (P24387 whole entry): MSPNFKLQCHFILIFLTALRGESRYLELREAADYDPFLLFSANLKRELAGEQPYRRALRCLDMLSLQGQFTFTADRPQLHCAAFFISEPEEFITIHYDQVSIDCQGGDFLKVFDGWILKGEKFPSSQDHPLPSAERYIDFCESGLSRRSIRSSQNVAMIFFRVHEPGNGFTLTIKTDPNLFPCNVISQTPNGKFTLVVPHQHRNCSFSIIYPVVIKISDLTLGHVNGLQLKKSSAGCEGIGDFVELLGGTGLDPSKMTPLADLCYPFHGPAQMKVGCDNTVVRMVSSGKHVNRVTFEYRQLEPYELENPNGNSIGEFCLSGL

[4] = inhibitors of intracellular T. cruzi replication, confirmation, NIH3T3 host cells, beta-gal luminescence (AID 2044); format: functional, cell-based;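 further: intracellular parasites grown in NIH/3T3 mouse fibroblasts as host cells; luminescent beta-galactosidase reporter signal from transgenic T. cruzi replicating inside host cells; inhibitors lower the luminescence signal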
[5] = cytotoxicity toward NIH3T3 fibroblasts, dose response, counter-screen, cell-based, ATP luminescence, mouse fibroblasts (AID 2010); format: functional;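 further: cells exposed to compound for about 90 hours before reading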

COc1ccccc1CN1CC[C@@]2(CCCN(C(=O)Oc3ccccc3)C2)C1
AC50 (Cytochrome P450 1A2): 10 µM (inconclusive) | AC50 (Cytochrome P450 3A4): 31.6 µM (inconclusive)

COc1ccc(CN2CCN(Cc3cccc(F)c3)CC2)cc1OC
IC50 [1]: 83 µM (active)

O=C(CN(CC1CCCO1)C(=O)CNS(=O)(=O)c1ccc(Cl)cc1)NCCc1ccccc1 (configuration not stated)
AC50 (Cytochrome P450 2D6): 39.8 µM (inconclusive) | AC50 (Cytochrome P450 2C9): 22.4 µM (inconclusive)

O=c1c(-c2cccc(Cl)c2)nc2cncnc2n1Cc1ccccc1
AC50 (Cytochrome P450 2C19): 0.0398 µM (inconclusive) | AC50 (Cytochrome P450 2D6): 39.8 µM (inconclusive)

CCOC(=O)c1c(C)[nH]c(N=Nc2ccccc2)c1C
CC50 [2]: 34.9 µM (active)

CCOc1c2ccc(C(=O)NCc3ccc(OC(F)(F)F)cc3)cc2nn1C
AC50 (Cytochrome P450 2C19): 20 µM (inconclusive) | AC50 (Cytochrome P450 2D6): 3.16 µM (inconclusive)

Nc1nc(CSc2nnnn2-c2ccc(Cl)cc2)nc(N2CCOCC2)n1
AC50 (Cytochrome P450 2C19): 1 µM (inconclusive) | AC50 (Cytochrome P450 2D6): 2.51 µM (inconclusive) | AC50 (Cytochrome P450 1A2): 2.51 µM (inconclusive) | AC50 (Cytochrome P450 2C9): 5.62 µM (inconclusive)

COc1ccc(C(=O)N2CCC3(CCCN(C(=O)Nc4cccc(C#N)c4)C3)CC2)cc1
AC50 (Cytochrome P450 2C19): 39.8 µM (inconclusive) | AC50 (Cytochrome P450 1A2): 15.8 µM (inconclusive) | AC50 (Cytochrome P450 2C9): 39.8 µM (inconclusive)

CNC(=O)C1CCN(S(=O)(=O)c2c(C)noc2/C=C/c2ccc(OC)cc2)CC1
EC50 [3]: > 53 µM (inactive)

COc1ccc(NCCC#N)cc1
IC50 [1]: 79.1 µM (active)

COc1ccccc1OCCCCCCN1CCOCC1
IC50 [1]: 184 µM (active)

COc1cc(/C=C/C(=O)OCC(=O)Nc2ccc(S(=O)(=O)N3CCCC3)cc2)ccc1O
IC50 [1]: 60 µM (active)

Cc1cccc(CNc2ccnc(-c3ccccc3C(F)(F)F)n2)c1
AC50 (Cytochrome P450 2D6): 25.1 µM (inconclusive) | AC50 (Cytochrome P450 3A4): 3.16 µM (inconclusive) | AC50 (Cytochrome P450 2C9): 1.26 µM (inconclusive)

CC(=O)[C@@H]1CC[C@H]2[C@H]3CC[C@H]4C[C@@H](O)CC[C@]4(C)[C@@H]3CC[C@]12C
AC50 (Cytochrome P450 2C19): 20 µM (inconclusive) | AC50 (Cytochrome P450 1A2): 10 µM (inconclusive) | AC50 (Cytochrome P450 3A4): 15.8 µM (inconclusive)

CN1CCc2nc3ccc(F)cc3c(C(N)=O)c2C1
AC50 (Cytochrome P450 2C19): 39.8 µM (inconclusive) | AC50 (Cytochrome P450 1A2): 25.1 µM (inconclusive) | AC50 (Cytochrome P450 2C9): 17.8 µM (inconclusive)

O=C(Cn1c(C(=O)NCC2CCCO2)cc2sccc21)c1ccccc1 (configuration not stated)
IC50 [1]: 102 µM (active)

O=C(c1cnccn1)N1CCC2(CCCN(c3ccc(-c4ccccc4)cc3)C2)CC1
AC50 (Cytochrome P450 1A2): 25.1 µM (inconclusive) | AC50 (Cytochrome P450 2C9): 12.6 µM (inconclusive)

Cc1ccccc1[C@]1(C)ON(c2ccccc2C(F)(F)F)C1=O
CC50 [2]: 21.8 µM (active)

COc1ccc(C(=O)Nc2ccccc2)cc1NC(=O)c1ccc([N+](=O)[O-])cc1
CC50 [2]: > 50 µM (active) | EC50 [4]: 1.33 µM (active) | EC50 [5]: > 60 µM (not active)

CN(C)c1ncnc2ccc(-c3cccnc3)cc12
AC50 (Cytochrome P450 2D6): 39.8 µM (inconclusive) | AC50 (Cytochrome P450 2C9): 1.26 µM (inconclusive)

O=S(=O)(c1ccccc1)N1CCC[C@@]2(CCN(Cc3ccccc3)C2)C1
AC50 (Cytochrome P450 1A2): 20 µM (inconclusive) | AC50 (Cytochrome P450 3A4): 1.26 µM (inconclusive)

Cc1ccc([N+](=O)[O-])cc1NC(=S)NC(=O)CC(C)(C)C
AC50 (Cytochrome P450 2D6): 12.6 µM (inconclusive) | AC50 (Cytochrome P450 3A4): 22.4 µM (inconclusive)

CC(C)CN1CCCC2(CCN(C(=O)c3cc(C(F)(F)F)cc(C(F)(F)F)c3)CC2)C1
AC50 (Cytochrome P450 1A2): 12.6 µM (inconclusive) | AC50 (Cytochrome P450 3A4): 15.8 µM (inconclusive) | AC50 (Cytochrome P450 2C9): 39.8 µM (inconclusive)

COc1cccc(C(=O)N2CCN(C3CCN(Cc4ccccc4)CC3)CC2)c1OC
IC50 [1]: 120 µM (active)

CN1CCN(c2ncc3nc(-c4ccccc4)c(=O)n(Cc4cccs4)c3n2)CC1
AC50 (Cytochrome P450 1A2): 15.8 µM (inconclusive)

CCC(C)OC(=O)C1=C(C)NC(=O)CC1c1ccccc1OC (configuration not stated)
AC50 (Cytochrome P450 1A2): 15.8 µM (inconclusive) | AC50 (Cytochrome P450 3A4): 39.8 µM (inconclusive)

COc1ccccc1NC(=O)C1CCN(S(=O)(=O)c2ccc3c(c2)NC(=O)C(C)S3)CC1 (configuration not stated)
CC50 [2]: 20.2 µM (active)

Cc1nc2cnc(N3CCN(C)CC3)nc2n(Cc2cccs2)c1=O
AC50 (Cytochrome P450 2D6): 15.8 µM (inconclusive) | AC50 (Cytochrome P450 3A4): 25.1 µM (inconclusive)

CCc1ccc(OCCOCCN2CCN(C)CC2)cc1
IC50 [1]: 89.4 µM (active)

CC1(c2ccccc2)NC(=O)N(CC(=O)NCCC2=CCCCC2)C1=O (configuration not stated)
AC50 (Cytochrome P450 2D6): 22.4 µM (inconclusive) | AC50 (Cytochrome P450 3A4): 20 µM (inconclusive)

NC(=O)OC[C@H](O)COc1ccc(Cl)cc1
AC50 (Cytochrome P450 1A2): 10 µM (inconclusive)

CC(=O)O[C@H]1CC[C@@]2(C)C(=CC[C@@H]3[C@H]4CC[C@@H]([C@H](C)C(=O)O)[C@]4(C)CC[C@H]32)C1
AC50 (Cytochrome P450 1A2): 3.16 µM (inconclusive)

CC(=C/c1ccccc1)/C=N/n1c(S)nnc1-c1ccco1
IC50 [1]: 86.4 µM (active)

COc1ccc(/C=N/c2ccc3[nH]ncc3c2)c(O)c1
IC50 [1]: 35.3 µM (active)

O=C(CN1CCN(S(=O)(=O)c2ccc(Br)cc2)CC1)N/N=C/c1ccc(Br)s1
CC50 [2]: 22.2 µM (active) | EC50 [4]: 2.55 µM (active) | EC50 [5]: > 60 µM (not active)

CCc1nnc(N/N=C/c2c(C)[nH]c3ccccc23)n1N
IC50 [1]: 51.7 µM (active)

COc1cc(/C=N/NC(=O)c2ccc(-n3cccc3)cc2)ccc1O
IC50 [1]: 23.9 µM (active)

O=C(COc1cccc2ccccc12)N/N=C/c1ccc(Sc2nc3ccccc3s2)o1
CC50 [2]: 10.8 µM (active)

O=C(N/N=C/c1ccc(Br)s1)c1c[nH]c2ccccc12
CC50 [2]: 37.3 µM (active)

COC(=O)c1nn(-c2ccccc2)c(Cl)c1/C=N/OCc1ccc(Cl)cc1Cl
CC50 [2]: 23.8 µM (active)

COc1cc(/C=N/NC(=O)CCc2nnc(O)nc2O)ccc1O
IC50 [1]: 32.5 µM (active)

CC(C)C(=O)/N=c1\sc2cccc(F)c2n1C
CC50 [2]: > 50 µM (active)

NC[C@@H]1O[C@H](c2ccccc2)Cc2c1ccc(O)c2O
AC50 (Cytochrome P450 2D6): 31.6 µM (inconclusive) | AC50 (Cytochrome P450 1A2): 15.8 µM (inconclusive) | AC50 (Cytochrome P450 3A4): 31.6 µM (inconclusive)

Cc1c(N(C)C)c(=O)n(-c2ccccc2)n1C [AMINOPYRINE]
AC50 (Cytochrome P450 1A2): 10 µM (inconclusive)

Cc1nc(N)sc1CCN [AMTHAMINE]
AC50 (Cytochrome P450 1A2): 31.6 µM (inconclusive)

CCCCN(CCCC)CCCOC(=O)c1ccc(N)cc1 [BUTACAINE]
AC50 (Cytochrome P450 1A2): 10 µM (inconclusive)

CN1CCN(C(c2ccccc2)c2ccccc2)CC1 [CYCLIZINE]
AC50 (Cytochrome P450 2D6): 7.94 µM (inconclusive)
